Laboratory results reported in patent US5593984A, “Cephalosporin derivatives” (Yuhan Corporation, priority 1992, dated 1997).
≈ marks a conversion by molar mass, not a printed value.

What was measured:
Assay type in all cases: cell-based
P. vulgaris NCTC 8313 = test: MIC by agar dilution, P. vulgaris NCTC 8313; conditions: Proteus vulgaris, NCTC8313, 17 h; P. vulgaris NCTC 8313; agar dilution, Mueller-Hinton agar; read-out: Minimal Inhibitory Concentration (MIC)
Experimental: (§1) These MIC values were determined by agar dilution method: that is, two-fold dilutions of each of the test compounds were made and dispersed in a Mueller-Hinton agar medium; standard test strain which had the 10^6 CFU (Colony Forming Unit) per ml was inoculated on the medium with microplanter (Toyo, Japan), and incubated at 35°-37° C. for 17±1 hours. The structures of Ceftazidime (CAZ) and Cefotaxime (CTX) which are used as control compounds are as follows: [drawing 12]

[1] = system: Ps. aeruginosa NCTC 10490; test: MIC by agar dilution, Ps. aeruginosa NCTC 10490; conditions: Pseudomonas aeruginosa, NCTC10490, 17 h, Mueller-Hinton agar, read-out: Minimal Inhibitory Concentration (MIC)
Experimental: as §1

Ps. aeruginosa DY-2 = test: MIC by agar dilution, Ps. aeruginosa DY-2; conditions: Pseudomonas aeruginosa, DY2, 17 h; Ps. aeruginosa DY-2; agar dilution, Mueller-Hinton agar; read-out: Minimal Inhibitory Concentration (MIC)
Experimental: as §1

Staph. aureus C-5216 = test: MIC by agar dilution, Staph. aureus C-5216; conditions: Staphylococcus aureus, C5216, 17 h, Mueller-Hinton agar, read-out: Minimal Inhibitory Concentration (MIC)
Experimental: as §1

[2] = system: S. epidermidis ATCC 12228; test: MIC by agar dilution, S. epidermidis ATCC 12228; conditions: Staphylococcus epidermidis, ATCC12228, 17 h; S. epidermidis ATCC 12228; agar dilution, Mueller-Hinton agar; read-out: Minimal Inhibitory Concentration (MIC)
Experimental: as §1

[3] = system: Ps. aeruginosa ATCC 10145; test: MIC by agar dilution, Ps. aeruginosa ATCC 10145; conditions: Pseudomonas aeruginosa, ATCC10145, 17 h, Mueller-Hinton agar, read-out: Minimal Inhibitory Concentration (MIC)
Experimental: as §1

Prov. stuartii IFO 12930 = test: MIC by agar dilution, Prov. stuartii IFO 12930; conditions: Providencia stuartii, IFO12930, 17 h, Mueller-Hinton agar, read-out: Minimal Inhibitory Concentration (MIC)
Experimental: as §1

Ent. cloacae IFO 13535 = test: MIC by agar dilution, Ent. cloacae IFO 13535; conditions: Enterobacter cloacae, IFO13535, 17 h; Ent. cloacae IFO 13535; agar dilution, Mueller-Hinton agar; read-out: Minimal Inhibitory Concentration (MIC)
Experimental: as §1

E. coli NIHJ JC-2 = test: MIC by agar dilution, E. coli NIHJ JC-2; conditions: Escherichia coli, NIHJJC2, 17 h; E. coli NIHJ JC-2; agar dilution, Mueller-Hinton agar; read-out: Minimal Inhibitory Concentration (MIC)
Experimental: as §1

B. subtilis ATCC 6633 = test: MIC by agar dilution, B. subtilis ATCC 6633; conditions: Bacillus subtilis, ATCC6633, 17 h; B. subtilis ATCC 6633; agar dilution, Mueller-Hinton agar; read-out: Minimal Inhibitory Concentration (MIC)
Experimental: as §1

Staph. aureus C-5113 = test: MIC by agar dilution, Staph. aureus C-5113; conditions: Staphylococcus aureus, C5113, 17 h, Mueller-Hinton agar, read-out: Minimal Inhibitory Concentration (MIC)
Experimental: as §1

Staph. aureus Smith = test: MIC by agar dilution, Staph. aureus Smith; conditions: Staphylococcus aureus, 17 h, Mueller-Hinton agar, read-out: Minimal Inhibitory Concentration (MIC)
Experimental: as §1

Ent. aerogenes IFO 12979 = test: MIC by agar dilution, Ent. aerogenes IFO 12979; conditions: Klebsiella aerogenes, IFO12979, 17 h, Mueller-Hinton agar, read-out: Minimal Inhibitory Concentration (MIC)
Experimental: as §1

E. coli DY-1 = test: MIC by agar dilution, E. coli DY-1; conditions: Escherichia coli, DY1, 17 h; E. coli DY-1; agar dilution, Mueller-Hinton agar; read-out: Minimal Inhibitory Concentration (MIC)
Experimental: as §1

M. morganii DY-1 = test: MIC by agar dilution, M. morganii DY-1; conditions: Morganella morganii, DY1, 17 h; M. morganii DY-1; agar dilution, Mueller-Hinton agar; read-out: Minimal Inhibitory Concentration (MIC)
Experimental: as §1

Staph. aureus ATCC 6538P = test: MIC by agar dilution, Staph. aureus ATCC 6538P; conditions: Staphylococcus aureus, ATCC6538P, 17 h; Staph. aureus ATCC 6538P; agar dilution, Mueller-Hinton agar; read-out: Minimal Inhibitory Concentration (MIC)
Experimental: as §1

K. pneumoniae NCTC 9632 = test: MIC by agar dilution, K. pneumoniae NCTC 9632; conditions: Klebsiella pneumoniae, NCTC9632, 17 h; K. pneumoniae NCTC 9632; agar dilution, Mueller-Hinton agar; read-out: Minimal Inhibitory Concentration (MIC)
Experimental: as §1

Staph. aureus C-57 = test: MIC by agar dilution, Staph. aureus C-57; conditions: Staphylococcus aureus, C57, 17 h, Mueller-Hinton agar, read-out: Minimal Inhibitory Concentration (MIC)
Experimental: as §1

E. coli No. 29 = test: MIC by agar dilution, E. coli No. 29; conditions: Escherichia coli, 17 h; E. coli No. 29; agar dilution, Mueller-Hinton agar; read-out: Minimal Inhibitory Concentration (MIC)
Experimental: as §1

[4] = system: Ser. marcescens IFO 12648; test: MIC by agar dilution, Ser. marcescens IFO 12648; conditions: Serratia marcescens, IFO12648, 17 h; Ser. marcescens IFO 12648; agar dilution, Mueller-Hinton agar; read-out: Minimal Inhibitory Concentration (MIC)
Experimental: as §1

MIC (P. vulgaris NCTC 8313) [µg/mL] | MIC [1] [µg/mL] | MIC (Ps. aeruginosa DY-2) [µg/mL] | MIC (Staph. aureus C-5216) [µg/mL] | MIC [2] [µg/mL] | MIC [3] [µg/mL] | MIC (Prov. stuartii IFO 12930) [µg/mL] | MIC (Ent. cloacae IFO 13535) [µg/mL] | MIC (E. coli NIHJ JC-2) [µg/mL] | MIC (B. subtilis ATCC 6633) [µg/mL] | MIC (Staph. aureus C-5113) [µg/mL] | MIC (Staph. aureus Smith) [µg/mL] | MIC (Ent. aerogenes IFO 12979) [µg/mL] | MIC (E. coli DY-1) [µg/mL] | MIC (M. morganii DY-1) [µg/mL] | MIC (Staph. aureus ATCC 6538P) [µg/mL] | MIC (K. pneumoniae NCTC 9632) [µg/mL] | MIC (Staph. aureus C-57) [µg/mL] | MIC (E. coli No. 29) [µg/mL] | MIC [4] [µg/mL] | SMILES
≤ 0.006 | 0.2 (≈ 0.367 µM) | 1.56 (≈ 2.86 µM) | 0.2 (≈ 0.367 µM) | 0.025 (≈ 0.0458 µM) | 0.39 (≈ 0.715 µM) | ≤ 0.006 | 0.025 (≈ 0.0458 µM) | 0.012 (≈ 0.022 µM) | 0.1 (≈ 0.183 µM) | 0.2 (≈ 0.367 µM) | 0.2 (≈ 0.367 µM) | ≤ 0.006 | ≤ 0.006 | ≤ 0.006 | 0.2 (≈ 0.367 µM) | ≤ 0.006 | 12.5 (≈ 22.9 µM) | ≤ 0.006 | ≤ 0.006 | Nc1nc(C(=NOCCF)C(=O)NC2C(=O)N3C(C(=O)[O-])=C(C[n+]4ccn5cccc5c4)CSC23)cs1 (stereo not drawn) [Ex. 5, 7-β-[(Z)-2-(2-aminothiazol-4-yl)-2-(2-fluoroethoxyimino)acetamido]-3-(pyrrolo[1,2-a]pyrazinium-2-yl)methyl-3-cephem-4-carboxylate]
0.012 (≈ 0.0192 µM) | 1.56 (≈ 2.5 µM) | 12.5 (≈ 20 µM) | 0.78 (≈ 1.25 µM) | 0.1 (≈ 0.16 µM) | 1.56 (≈ 2.5 µM) | 0.025 (≈ 0.0401 µM) | 0.78 (≈ 1.25 µM) | 0.2 (≈ 0.32 µM) | 0.1 (≈ 0.16 µM) | 1.56 (≈ 2.5 µM) | 1.56 (≈ 2.5 µM) | 0.1 (≈ 0.16 µM) | 0.025 (≈ 0.0401 µM) | 0.2 (≈ 0.32 µM) | 0.2 (≈ 0.32 µM) | 0.1 (≈ 0.16 µM) | 6.25 (≈ 10 µM) | 0.1 (≈ 0.16 µM) | 0.2 (≈ 0.32 µM) | CO/N=C(\C(=O)N[C@@H]1C(=O)N2C(C(=O)[O-])=C(C[n+]3ccn4c(SCCO)ccc4c3)CS[C@H]12)c1nc(N)sc1Cl [Ex. 52, 7-β-[(Z)-2-(2-amino-5-chlorothiazol-4-yl)-2-methoxyiminoacetamido]-3-[6-(2-hydroxyethylthio)pyrrolo[1,2-a]-pyrazinium-2-yl]methyl-3-cephem-4-carboxylate]
≤ 0.006 | 0.1 (≈ 0.176 µM) | 6.25 (≈ 11 µM) | 1.56 (≈ 2.74 µM) | 0.05 (≈ 0.0878 µM) | 3.13 (≈ 5.49 µM) | 0.05 (≈ 0.0878 µM) | 0.2 (≈ 0.351 µM) | 0.05 (≈ 0.0878 µM) | 0.1 (≈ 0.176 µM) | 1.56 (≈ 2.74 µM) | 0.78 (≈ 1.37 µM) | 0.012 (≈ 0.0211 µM) | 0.025 (≈ 0.0439 µM) | 0.025 (≈ 0.0439 µM) | 0.2 (≈ 0.351 µM) | 0.05 (≈ 0.0878 µM) | 50 (≈ 87.8 µM) | 0.05 (≈ 0.0878 µM) | 0.1 (≈ 0.176 µM) | CCON=C(C(=O)NC1C(=O)N2C(C(=O)[O-])=C(C[n+]3ccn4c(C(C)=O)ccc4c3)CSC12)c1csc(N)n1 (stereo not drawn) [Ex. 19, 7-β-[(Z)-2-(2-aminothiazol-4-yl)-2-ethoxyiminoacetamido]-3-(6-acetylpyrrolo[1,2-a]pyrazinium-2-yl)methyl-3-cephem-4-carboxylate]
≤ 0.006 | 0.1 (≈ 0.178 µM) | 1.56 (≈ 2.78 µM) | 0.78 (≈ 1.39 µM) | 0.025 (≈ 0.0445 µM) | 0.39 (≈ 0.694 µM) | ≤ 0.006 | 0.05 (≈ 0.089 µM) | ≤ 0.006 | 0.1 (≈ 0.178 µM) | 1.56 (≈ 2.78 µM) | 0.78 (≈ 1.39 µM) | ≤ 0.006 | ≤ 0.006 | ≤ 0.006 | 0.2 (≈ 0.356 µM) | ≤ 0.006 | 50 (≈ 89 µM) | ≤ 0.006 | ≤ 0.006 | Nc1nc(C(=NOCF)C(=O)NC2C(=O)N3C(C(=O)[O-])=C(C[n+]4ccn5c(CO)ccc5c4)CSC23)cs1 (stereo not drawn) [Ex. 22, 7-β-[(Z)-2-(2-aminothiazol-4-yl)-2-fluoromethoxyiminoacetamido]-3-(6-hydroxymethylpyrrolo[1,2-a]pyrazinium-2-yl)methyl-3-cephem-4-carboxylate]
